Measurements as given in US12527754B2, “Methods and compositions for preventing and treating metabolic syndrome induced by antipsychotic treatment and related diseases and conditions” (Tufts Medical Center, Inc., priority 2018, dated 2026).

Legend:
[1] = MetS induced by high-fat diet (HFD) in mice; type: in vivo; conditions: C57Bl/j male mice on HFD, benserazide 50 mg/day p.o., 12 weeks
Procedure: In other experiments, we conducted a pre-clinical trial of benserazide on the development of MetS induced by high-fat diet (HFD). HFD was fed to C57Bl/j male mice (6 weeks of age). Benserazide, 50 mg/day, p.o., was administered for 12 weeks (five days/week). Differences (p<0.05) were considered as statistically significant (Mann-Whitney two-tailed test).

[2] = C57BL female mice, N = 10; end of 10-week treatment
Procedure: (§1) C57BL female mice (n=10 mice in each group) were treated with olanzapine (4 mg/kg, po) (control) or with a combination of olanzapine (4 mg/kg, po) and benserazide (100 mg/day, po), 5 days per week for 10 weeks.
(§2) Body weight was checked two times per week. Glucose tolerance, a marker of IR, was determined by a glucose tolerance test (GTT) at the end of the study (day 71). In addition, blood samples were analyzed for cholesterol (total) and triglycerides.

[3] = GTT at day 71; C57BL female mice, N = 10
Procedure: as §1, §2

Structure (SMILES)	Elevation of blood cholesterol induced by HFD, change ([1]; five days/week)	Elevation of triglycerides induced by HFD, change ([1]; five days/week)	Excessive weight gain induced by HFD, change ([1]; five days/week)	Glucose tolerance impairment induced by HFD ([1]; result in words)	Effect on weight gain induced by olanzapine (benserazide 100 mg/day po with olanzapine 4 mg/kg po, 10 weeks, result in words)	Body weight, Day 1 (C57BL female mice, n = 10, olanzapine 4 mg/kg po with or without benserazide 100 mg/day po, 5 days per week for 10 weeks, Day 1)	Body weight, Day 71 (C57BL female mice, n = 10, olanzapine 4 mg/kg po with or without benserazide 100 mg/day po, 5 days per week for 10 weeks, Day 71)	Cholesterol (total, blood) [2]	Triglycerides (blood) [2]	Glucose levels 90 minutes after ingestion of sugar [3]	Glucose levels baseline (before ingestion of sugar) [3]
NC(CO)C(=O)NNCc1ccc(O)c(O)c1O (centres unmarked) [Benserazide, seryl-(2,3,4-trihydroxybenzyl)-hydrazide]	−17%	−25%	−40%	attenuated	attenuated weight gain						
Cc1cc2c(s1)Nc1ccccc1N=C2N1CCN(C)CC1 [Olanzapine]						17.4 ± 0.13	34.0 ± 0.09	172.33 ± 4.536	151.00 ± 5.37	520.55 ± 15.63	183.25 ± 10.49
